Experimental data as given in ChEMBL document CHEMBL1782014, “20(R)-ginsenoside Rh2, not 20(S), is a selective osteoclastgenesis inhibitor without any cytotoxicity” (Bioorg Med Chem Lett, 2009).

Legend:
[1] = Toxicity in RANKL and TNFalpha-pretreated mouse RAW264 cells assessed as effect on cell proliferation upto 50 uM incubated for 3 days by WST-1 assay; conditions: raw264, 72 h
[2] = test system: Radical scavenging activity; test: Antioxidant activity assessed as DPPH radical scavenging activity at 1.6 mM after 20 mins by UV spectrophotometry; assay type: functional
[3] = Toxicity in RANKL and TNFalpha-pretreated mouse RAW264 cells assessed as inhibition of cell proliferation upto 100 uM incubated for 3 days by WST-1 assay; conditions: raw264, 72 h
[4] = Inhibition of RANKL and TNF-alpha-induced osteoclastogenesis in mouse RAW264 cells incubated for 3 days by TRAP staining based method; assay type: functional, cell-based; conditions: RAW264.7, 72 h
[5] = Toxicity in RANKL and TNFalpha-pretreated mouse RAW264 cells assessed as inhibition of cell proliferation incubated for 3 days by WST-1 assay; conditions: RAW264 cells pretreated with RANKL and TNFalpha
[6] = test system: Radical scavenging activity; test: Antioxidant activity assessed as DPPH radical scavenging activity at 0.2 mM after 20 mins by UV spectrophotometry; assay type: functional

Compound	Activity [1]	Activity [2] [%]	Activity [3]	IC50 [4] [µM]	IC50 at 3 days [5] [µM]	Activity [6] [%]
CC(C)=CCC[C@@](C)(O)[C@H]1CC[C@]2(C)[C@@H]1[C@H](O)C[C@@H]1[C@@]3(C)CC[C@H](O[C@@H]4O[C@H](CO)[C@@H](O)[C@H](O)[C@H]4O)C(C)(C)[C@@H]3CC[C@]12C	Non-toxic	< 10	Non-toxic	12	–	–
CC(C)=CCC[C@](C)(O)[C@H]1CC[C@]2(C)[C@@H]1[C@H](O)C[C@@H]1[C@@]3(C)CC[C@H](O[C@@H]4O[C@H](CO)[C@@H](O)[C@H](O)[C@H]4O)C(C)(C)[C@@H]3CC[C@]12C [GINSENOSIDE RH2]	–	< 10	–	32	62	–
Cc1c(C)c2c(c(C)c1O)CC[C@@](C)(CCC[C@H](C)CCC[C@H](C)CCCC(C)C)O2	–	–	–	–	–	96
